These results are taken from PMC9457575 (Molecules, 2022).

“Also recorded” adds a separate entry of the source. Like-named read-outs stand apart in the source and are kept apart here. Where only a bound is given, the exact number is not on record here.

Data set [1] deals with T1, human CB1 receptor (hCB1) (Homo sapiens, UniProt P21554).
T1 construct: host or cells: Chinese Hamster Ovary (CHO) cells
In words: cAMP accumulation assay (Lance TR-FRET) in CHO-hCB1 cells. The data set is classed as cell-based. The conditions noted are these: for hCB1 cAMP EC50 / EC50: forskolin-stimulated; for hCB1 cAMP EC50 / EC50 / Emax / hCB1 cAMP Efficacy: mean ± SEM; for Emax: read-out: hCB1 cAMP Efficacy, % of the maximum CP55940 (full agonist) signal; for hCB1 cAMP Efficacy: % of the maximum CP55940 (full agonist) signal. As to the method:
The cAMP assays were performed in Chinese Hamster Ovary (CHO) cells (Perkin Elmer, Cat # ES-110-C) stably expressing the human CB1 receptor (hCB1) cultured under standard cell culture conditions (37 °C, 5% carbon dioxide, DMEM media with 1% Penicillin/Streptomycin and 400 µg/mL G418) using the Lance™ assay kit and manufacturer’s instructions were closely followed (Perkin Elmer). In brief, stimulation buffer containing 1X Hank’s Balanced Salt Solution (HBSS), 5 mM HEPES, 0.1% BSA stabilizer, and 0.5 mM final IBMX was prepared and titrated to pH 7.4 at rt. Serial dilutions of the test compounds and 300 nM forskolin, both prepared at 4× the desired final concentration in stimulation buffer, were added to a 96-well white ½ area microplate (PerkinElmer). The CHO-hCB1 cells were lifted with a non-enzymatic solution (Cell-stripper, Mediatech Inc., Orlando, FL, USA), and 4000 cells were added to each well. After incubating for 30 min at room temperature, Eu-cAMP tracer and uLIGHT-anti-cAMP working solutions were added per the manufacturer’s instructions. After incubation for 1 h, the TR-FRET signal (ex 337 nm, em 620 and […]) was read on a CLARIO star multimode plate reader (BMG Biotech, Cary, NC, USA). Data were analyzed using Prism software (GraphPad, La Jolla, CA, USA). Nonlinear regression analysis was performed to fit data and obtain maximum response (Emax), EC50, correlation coefficient (r^2), and other parameters. All experiments were performed in duplicate 2–3 times to ensure reproducibility and data are reported as mean ± standard error of mean unless noted otherwise.

The nature of data set [2]: Pharmacokinetic evaluation of brain exposure in mice. On the set-up: species or system C57BL/6 mice. The conditions noted are these: female, C57BL/6, mouse, in vivo, C57BL6 mice, 3 mg/kg IP; for Cmax: brain, 0.5-4 h, read-out: brain maximum (Cmax) concentration; for Kp: read-out: brain:plasma Cmax ratio. As to the method: Female C57BL/6 mice were bred in house and used at ~10 weeks of age for pharmacokinetic (PK) testing. Three animals were tested per time point. Doses were formulated in 2% NMP in canola oil, and all compounds were delivered at 3 mg/kg by intraperitoneal injection (IP). Tissues were taken at 0.5, 1, 2, and 4 h post dose. Animals were subjected to whole body perfusion using saline prior to tissue collection. Brain samples were homogenized with 50:50 ethanol:water (1:5, v/v). Forty µL of the homogenate, 10 µL of acetonitrile, and 150 µL of 100 ng/mL reserpine in acetonitrile containing 0.1% formic acid were vortexed and centrifuged. Plasma samples were diluted with 10 µL of acetonitrile, 150 µL of 100 ng/mL reserpine in acetonitrile containing 0.1% formic acid, vortexed and centrifuged. Samples were subjected to LC/MS/MS analysis. Standards were prepared in blank samples and used for calibration curves. Chromatography was performed using a Phenomenex Luna C18 column.

The next data set addresses hCB1 (Homo sapiens, UniProt P21554). Nature of the data set: Radioligand displacement of [3H]CP55940. The settings on record: average of 3 measurements, read-out: Binding affinity (Ki). As to the method:
Further characterization of 21 was performed using radioligand displacement of [^3H]CP55940 and equilibrium dissociation constant (Ki) value was determined as described previously. Data reported are average values from 3 measurements with <30% standard error.
In general terms: In a radioligand displacement assay an active substance lowers the binding of a labelled ligand.

The mark [3] stands for this setting: CHO cells stably expressing hCB1.
Setting [4] is: CHO cells stably expressing hCB1, read-out: hCB1 cAMP EC50.
[5] abbreviates: hCB1 cAMP EC50, CHO cells stably expressing hCB1.

T1 sequence (P21554 whole entry): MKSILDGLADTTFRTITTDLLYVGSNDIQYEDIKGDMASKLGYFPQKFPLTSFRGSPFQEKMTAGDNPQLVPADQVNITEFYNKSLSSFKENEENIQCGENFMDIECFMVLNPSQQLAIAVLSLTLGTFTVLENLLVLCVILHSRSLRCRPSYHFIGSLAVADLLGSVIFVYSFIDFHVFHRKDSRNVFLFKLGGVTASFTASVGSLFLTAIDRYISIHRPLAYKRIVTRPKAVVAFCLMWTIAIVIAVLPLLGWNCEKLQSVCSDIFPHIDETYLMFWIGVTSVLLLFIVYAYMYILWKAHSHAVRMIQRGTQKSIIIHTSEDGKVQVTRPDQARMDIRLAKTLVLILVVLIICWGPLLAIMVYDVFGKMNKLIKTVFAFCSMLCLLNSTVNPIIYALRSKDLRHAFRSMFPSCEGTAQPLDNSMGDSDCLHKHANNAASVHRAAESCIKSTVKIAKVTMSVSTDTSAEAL
Sequence of hCB1 (P21554 whole entry): as above

`CCCCN(C)C(=O)Nc1cccc(Oc2cccc(C(F)(F)F)c2C#N)c1` [Compound 19, 3-Butyl-1-{3-[2-cyano-3-(trifluoromethyl)phenoxy]phenyl}-3-methylurea]: in data set [1] (setting [3]), the “hCB1 cAMP EC50” value is “Inactive”.

`N#Cc1c(Oc2cccc(NS(=O)(=O)c3cccc(OC(F)(F)F)c3)c2)cccc1C(F)(F)F` [Compound 14, N-{3-[2-Cyano-3-(trifluoromethyl)phenoxy]phenyl}-3-(trifluoromethoxy)benzene-1-sulfonamide] came in with a melting point of 120 to 121 °C. In addition, the “hCB1 cAMP EC50” value in data set [1] (setting [3]) was “Inactive”.

Compound `N#Cc1c(Oc2cccc(NS(=O)(=O)Cc3ccccc3)c2)cccc1C(F)(F)F` [Compound 8, N-{3-[2-Cyano-3-(trifluoromethyl)phenoxy]phenyl}-1-phenylmethanesulfonamide] returned a melting point of 131 to 132 °C. Further, the concentration giving a half-maximal response (EC50) in data set [1] (setting [4]) turned out to be 228 ± 134 nM. Besides, in data set [1], the Emax was 102%.

Turning to `N#Cc1c(Oc2cccc(NS(=O)(=O)Cc3cccc(Cl)c3)c2)cccc1C(F)(F)F` [Compound 12, 1-(3-Chlorophenyl)-N-{3-[2-cyano-3-(trifluoromethyl)phenoxy]phenyl}methanesulfonamide], the melting point lay within 144 to 145 °C. Moreover, the “hCB1 cAMP EC50” value in data set [1] (setting [3]) was “loss of activity; also recorded: Inactive”.

In the case of `CCCCOC(=O)Nc1cccc(Oc2cccc(C(F)(F)F)c2C#N)c1` [Compound 17, Butyl N-{3-[2-Cyano-3-(trifluoromethyl)phenoxy]phenyl}carbamate], in data set [1] (setting [3]), the “hCB1 cAMP EC50” value was “Inactive”.

In the case of `N#Cc1ccccc1Oc1cccc(NS(=O)(=O)CCCC(F)(F)F)c1` [Compound 6, N-[3-(2-Cyanophenoxy)phenyl]-4,4,4-trifluorobutane-1-sulfonamide], in data set [1] (setting [4]), the EC50 was found to be 106 ± 8 nM. In data set [1], the Emax is 95%.

With `CCCCCS(=O)(=O)Nc1cccc(Oc2cccc(C(F)(F)F)c2C#N)c1` [Compound 7, N-{3-[2-Cyano-3-(trifluoromethyl)phenoxy]phenyl}pentane-1-sulfonamide], the EC50 in data set [1] (setting [4]) came out at 248 ± 108 nM. The Emax in data set [1] is 76%.

`N#Cc1c(Oc2ccc(NS(=O)(=O)Cc3ccccc3)cc2)cccc1C(F)(F)F` [Compound 23, N-{4-[2-Cyano-3-(trifluoromethyl)phenoxy]phenyl}-1-phenylmethanesulfonamide]: the melting point lay in the range of 166 to 167 °C. Besides, the “hCB1 cAMP EC50” value in data set [1] (setting [3]) is on record as “Inactive”.

In the case of `O=S(=O)(Cc1ccccc1)Nc1cccc(Oc2cccc(C(F)(F)F)c2Cl)c1` [Compound 9, N-{3-[2-Chloro-3-(trifluoromethyl)phenoxy]phenyl}-1-phenylmethanesulfonamide], the melting point was 129 to 130 °C. Also, the EC50 in data set [1] (setting [4]) is 255 ± 62 nM. Besides, in data set [1], the Emax was 78%.

For the compound `N#Cc1c(Oc2cccc(NS(=O)(=O)Cc3ccc(Cl)cc3)c2)cccc1C(F)(F)F` [Compound 13, 1-(4-Chlorophenyl)-N-{3-[2-cyano-3-(trifluoromethyl)phenoxy]phenyl}methanesulfonamide], the melting point lay in the range of 115 to 116 °C. Further, the “hCB1 cAMP potency compared to the unsubstituted benzylsulfonamide 8” value in data set [1] (fold more potent than 8) is on record as “about 10 ×”. In data set [1] (setting [5]), this compound gave an EC50 of 25 ± 4 nM. In addition, the Emax in data set [1] was 95%.

As to `N#Cc1c(Oc2cccc(NC(=O)Cc3ccccc3)c2)cccc1C(F)(F)F` [Compound 20, N-{3-[2-Cyano-3-(trifluoromethyl)phenoxy]phenyl}-2-phenylacetamide], the melting point is 136 to 137 °C. Moreover, the EC50 in data set [1] (setting [4]) was 474 ± 174 nM. Further, the Emax in data set [1] is < 20%.

As to `O=S(=O)(CCCC(F)(F)F)Nc1cccc(Oc2cccc(C(F)(F)F)c2Cl)c1` [Compound 5, N-{3-[2-Chloro-3-(trifluoromethyl)phenoxy]phenyl}-4,4,4-trifluorobutane-1-sulfonamide], in data set [1] (setting [4]), the EC50 came out at 175 ± 42 nM. The Emax in data set [1] was 95%.

In the case of `N#Cc1c(Oc2cccc(OS(=O)(=O)CCCC(F)(F)F)c2)cccc1C(F)(F)F` [Compound 1, 3-[2-Cyano-3-(trifluoromethyl)phenoxy]phenyl-4,4,4-trifluoro-1-butanesulfonate, reference compound], in data set [1], the “hCB1 cAMP Efficacy” value was 39 ± 11%. For the same compound, the EC50 in data set [1] (setting [5]) was found to be 46 ± 5 nM. For the same compound, in data set [2], the Cmax is ~341 ng/mL and the Kp is 0.4.

`N#Cc1c(Oc2cccc(NS(=O)(=O)CCCC(F)(F)F)c2)cccc1C(F)(F)F` [Compound 4, N-{3-[2-Cyano-3-(trifluoromethyl)phenoxy]phenyl}-4,4,4-trifluorobutane-1-sulfonamide] gave a melting point of 96 to 97 °C. For the same compound, in data set [1] (setting [4]), the EC50 was determined as 190 ± 46 nM. Further, in data set [1], the Emax was 96%.

Regarding `CCCCCC(=O)Nc1cccc(Oc2cccc(C(F)(F)F)c2C#N)c1` [Compound 16, N-{3-[2-Cyano-3-(trifluoromethyl)phenoxy]phenyl}hexanamide], the melting point fell in the range of 95 to 96 °C. In addition, in data set [1] (setting [3]), the “hCB1 cAMP EC50” value is reported as “Inactive”.

Compound `N#Cc1c(Oc2cccc(NS(=O)(=O)Cc3ccccc3Cl)c2)cccc1C(F)(F)F` [Compound 11, 1-(2-Chlorophenyl)-N-{3-[2-cyano-3-(trifluoromethyl)phenoxy]phenyl}methanesulfonamide] returned a melting point of 121 to 122 °C. Further, the “hCB1 cAMP EC50” value in data set [1] (setting [3]) was “loss of activity; also recorded: Inactive”.

Regarding `N#Cc1c(Oc2cccc(NS(=O)(=O)c3ccc(OC(F)(F)F)cc3)c2)cccc1C(F)(F)F` [Compound 15, N-{3-[2-Cyano-3-(trifluoromethyl)phenoxy]phenyl}-4-(trifluoromethoxy)benzene-1-sulfonamide], the melting point is 164 to 165 °C. Also, in data set [1] (setting [3]), the “hCB1 cAMP EC50” value is “Inactive”.

For `N#Cc1ccccc1Oc1cccc(NS(=O)(=O)Cc2ccccc2)c1` [Compound 10, N-[3-(2-Cyanophenoxy)phenyl]-1-phenylmethanesulfonamide], in data set [1] (setting [4]), the EC50 amounted to 164 ± 32 nM. In addition, the Emax in data set [1] was 82%.

In turn, `N#Cc1c(Oc2cccc(NS(=O)(=O)NC3CCCCC3)c2)cccc1C(F)(F)F` [Compound 21, N-Cyclohexyl({3-[2-cyano-3-(trifluoromethyl)phenoxy]phenyl}mamino)sulfonamide] came in with a melting point of 199 to 200 °C. Also, the Ki at hCB1 is ~1500 nM. In data set [1], the “hCB1 cAMP Efficacy” value stood at 27 ± 18% and the Emax stood at 27%. In addition, in data set [1] (setting [5]), the EC50 stood at 139 ± 24 nM. In data set [2], the Cmax was ~75 ng/mL and the Kp is 0.17.

In turn, `CCCCCS(=O)(=O)Nc1ccc(Oc2cccc(C(F)(F)F)c2C#N)cc1` [Compound 22, N-{4-[2-Cyano-3-(trifluoromethyl)phenoxy]phenyl}pentane-1-sulfonamide] had a melting point of 94 to 95 °C. Further, the “hCB1 cAMP EC50” value in data set [1] (setting [3]) is recorded as “Inactive”.

`N#Cc1c(Oc2ccc(NC(=O)Cc3ccccc3)cc2)cccc1C(F)(F)F` [Compound 24, N-{4-[2-Cyano-3-(trifluoromethyl)phenoxy]phenyl}-2-phenylacetamide] came in with a melting point of 200 to 201 °C. In data set [1], the “hCB1 cAMP Efficacy” value stood at 36 ± 14% and the Emax was found to be 36%. The concentration for a half-maximal effect (EC50) in data set [1] (setting [4]) came to 366 ± 136 nM. Moreover, in data set [2], the Cmax is ~730 ng/mL and the Kp is 0.79.

On to `CCCCNC(=O)Nc1cccc(Oc2cccc(C(F)(F)F)c2C#N)c1` [Compound 18, 3-Butyl-1-{3-[2-cyano-3-(trifluoromethyl)phenoxy]phenyl}urea], for which the “hCB1 cAMP EC50” value in data set [1] (setting [3]) was “Inactive”.

By melting point is commonly meant the temperature of the solid-liquid transition. The term EC50 denotes the concentration that produces a half-maximal response. As usually defined, the Ki is the equilibrium dissociation constant of an inhibitor or competing ligand from its target.
